# Assay results taken from patent publication US10702507B2, “Endoparasite control agent” (THE UNIVERSITY OF TOKYO, priority 2014, dated 2020).
# System: 1st-stage larvae of Haemonchus contortus
# Experiment: Test for effect on motion of larvae of Haemonchus nematode
# Conditions: 20 larvae per well, 27° C./95% RH for 4 days, corrected against DMSO negative control, duplicate
# Procedure: Test for Effect on Motion of Larvae of Haemonchus Nematode (Haemonchus contortus) The compound of the present invention was prepared as solutions in 100% DMSO at the final concentrations of 50 ppm, 5 ppm, 0.5 ppm, 0.05 ppm and 0.005 ppm. DMSO stands for dimethyl sulfoxide. A larval suspension containing 1st-stage larvae of Haemonchus contortus harvested by the Baermann technique (for example, see K. Nakazono et al., “Inclination of Baermann funnel wall and efficiency of nematode extraction” Proc. Assoc. Pl. Prot. Kyushu 33: 126-130 (1987)) was placed at a density of 20 larvae per well in a test plate, and 0.5 μL/well of the test solution containing the compound of the present invention diluted to a predetermined concentration was added to the test plate. The plate was kept under the conditions of 27° C./95% RH for 4 days. In the test, ivermectin was used for the positive control and DMSO was used for the negative control. The motor ability of the larvae was examined with an automatic analyzer equipped with an LCD camera. The inhibitory effect on the motion of the larvae in each treatment plot was corrected based on the inhibitory effect in the plot treated with DMSO only for the negative control. The EC50 value was calculated from the data on the corrected inhibitory effect on the motion of the larvae, and graded according to the criteria shown below. The test was conducted in duplicate per plot.
row,Compound,"EC50 value of corrected inhibitory effect on the motion of the larvae, graded"
1,O=C(NCCc1ccc(-c2ccc(C(F)(F)F)cc2)cc1Cl)c1ccccc1C(F)(F)F [Compound 1-50],C or higher
2,O=C(NCCc1ccc(Oc2cnc3ccccc3n2)cc1Cl)c1ccccc1I [Compound 1-35],C or higher
3,Cc1cnc(Cl)nc1Oc1ccc(CCNC(=O)c2ccccc2I)c(Cl)c1 [Compound 1-32],C or higher
4,O=C(NCCc1ccc(Oc2nc3ccc(Cl)cc3s2)cc1Cl)c1ccccc1I [Compound 1-37],C or higher
5,O=C(NCCc1ccc(Oc2ccc3ccccc3n2)cc1Cl)c1ccccc1C(F)(F)F [Compound 1-13],C or higher
6,CC(C)(CNC(=O)c1ccccc1C(F)(F)F)c1ccc(Oc2ncc(Cl)cc2Cl)cc1Cl [Compound 1-46],C or higher
7,O=C(NCC1(c2ccc(Oc3ncc(C(F)(F)F)cc3Cl)cc2Cl)CC1)c1ccccc1C(F)(F)F [Compound 1-47],C or higher
8,O=C(NCCc1ccc(Oc2cc(Cl)nc(Cl)n2)cc1Cl)c1ccccc1I [Compound 1-30],C or higher
9,CC(C)(CNC(=O)c1ccccc1C(F)(F)F)c1ccc(Oc2ncc(C(F)(F)F)cc2Cl)cc1Cl [Compound 1-44],C or higher
10,CC(CNC(=O)c1ccccc1C(F)(F)F)c1ccc(-c2ccncc2)cc1Cl (racemic) [Compound 1-59],C or higher
11,COc1cc(OC)nc(Oc2ccc(CCNC(=O)c3ccccc3C(F)(F)F)c(Cl)c2)n1 [Compound 1-6],C or higher
12,O=C(NCCc1ncc(-c2cccc(C(F)(F)F)c2)cc1Cl)c1ccccc1C(F)(F)F [Compound 2-3],C or higher
